Measurements published in the CheMixHub viscosity set.
± gives the uncertainty stated by the source.

Assay: xn = mol fraction of the nth substance listed

CC(C)O + CCCCCCC
viscosity [mPa·s], 101 kPa
Conditions	x2 = 0.1003	x2 = 0.2009	x2 = 0.3009	x2 = 0.398	x2 = 0.5002	x2 = 0.5961	x2 = 0.6981	x2 = 0.8014	x2 = 0.9084
293.15 K	1.596 ± 0.019	1.178 ± 0.014	0.9242 ± 0.011	0.7437 ± 0.009	0.6223 ± 0.0076	0.5479 ± 0.0068	0.493 ± 0.0062	0.4607 ± 0.0059	0.436 ± 0.0056
298.15 K	1.413 ± 0.017	1.044 ± 0.013	0.8165 ± 0.0098	0.6851 ± 0.0083	0.5866 ± 0.0072	0.5025 ± 0.0063	0.4623 ± 0.0058	0.4268 ± 0.0055	0.4025 ± 0.0052
303.15 K	1.23 ± 0.015	0.927 ± 0.011	0.7388 ± 0.0089	0.62 ± 0.0076	0.5333 ± 0.0066	0.4679 ± 0.0058	0.4351 ± 0.0055	0.4137 ± 0.0053	0.3897 ± 0.0051
308.15 K	1.091 ± 0.013	0.8401 ± 0.01	0.6728 ± 0.0081	0.577 ± 0.007	0.4915 ± 0.0061	0.4441 ± 0.0056	0.4083 ± 0.0052	0.3805 ± 0.0049	0.3637 ± 0.0048

CC1CCCCC1 + CCCCCCC
viscosity [mPa·s]
Conditions	293.15 K	298.15 K	303.15 K	308.15 K	323.15 K
100 kPa, x1 = 0.125	–	–	0.389 ± 0.009	–	0.317 ± 0.007
100 kPa, x1 = 0.25	–	–	0.411 ± 0.009	–	0.335 ± 0.008
100 kPa, x1 = 0.375	–	–	0.436 ± 0.01	–	0.354 ± 0.008
100 kPa, x1 = 0.5	–	–	0.465 ± 0.01	–	0.375 ± 0.008
100 kPa, x1 = 0.625	–	–	0.498 ± 0.011	–	0.4 ± 0.009
100 kPa, x1 = 0.75	–	–	0.538 ± 0.012	–	0.43 ± 0.01
100 kPa, x1 = 0.875	–	–	0.585 ± 0.013	–	0.466 ± 0.011
101 kPa, x1 = 0.0405	0.4128 ± 0.004	0.3963 ± 0.0039	0.368 ± 0.0037	–	–
101 kPa, x1 = 0.1021	–	0.411 ± 0.008	0.391 ± 0.008	0.371 ± 0.007	–
101 kPa, x1 = 0.1996	0.4451 ± 0.0044	0.4235 ± 0.0043	0.4003 ± 0.0041	–	–
101 kPa, x1 = 0.2033	–	0.432 ± 0.008	0.41 ± 0.008	0.389 ± 0.008	–
101 kPa, x1 = 0.281	0.4637 ± 0.0047	0.4402 ± 0.0045	0.4162 ± 0.0043	–	–
101 kPa, x1 = 0.3044	–	0.451 ± 0.009	0.427 ± 0.008	0.403 ± 0.008	–
101 kPa, x1 = 0.3593	0.4826 ± 0.0049	0.4568 ± 0.0047	0.4317 ± 0.0045	–	–
101 kPa, x1 = 0.4036	–	0.473 ± 0.009	0.449 ± 0.008	0.422 ± 0.008	–
101 kPa, x1 = 0.4393	0.5042 ± 0.0052	0.474 ± 0.005	0.4476 ± 0.0048	–	–
101 kPa, x1 = 0.5029	–	0.497 ± 0.009	0.47 ± 0.009	0.443 ± 0.008	–
101 kPa, x1 = 0.6003	0.5514 ± 0.0059	0.5153 ± 0.0056	0.4887 ± 0.0054	–	–
101 kPa, x1 = 0.6033	–	0.526 ± 0.01	0.496 ± 0.009	0.467 ± 0.009	–
101 kPa, x1 = 0.6793	0.5802 ± 0.0064	0.5399 ± 0.006	0.512 ± 0.0057	–	–
101 kPa, x1 = 0.7038	–	0.556 ± 0.01	0.524 ± 0.01	0.492 ± 0.009	–
101 kPa, x1 = 0.76	0.6141 ± 0.0069	0.571 ± 0.0065	0.5395 ± 0.0062	–	–
101 kPa, x1 = 0.8022	–	0.591 ± 0.011	0.557 ± 0.01	0.522 ± 0.01	–
101 kPa, x1 = 0.84	0.6483 ± 0.0074	0.6042 ± 0.007	0.5687 ± 0.0066	–	–
101 kPa, x1 = 0.9006	–	0.625 ± 0.011	0.589 ± 0.011	0.553 ± 0.01	–
101 kPa, x1 = 0.9074	0.6821 ± 0.0079	0.6347 ± 0.0074	0.5964 ± 0.007	–	–

CCCCCCCCCCCCCCCCCCCCCCCC + CCCCCCC
Conditions	viscosity [mPa·s]
313.2 K, 101.3 kPa, x1 = 0.198	0.9672 ± 0.011

CCOC(=O)c1ccccc1 + CCCCCCC
viscosity [mPa·s]
Conditions	298.15 K	303.15 K	308.15 K	313.15 K	318.15 K
101 kPa, x1 = 0.1042	–	0.417 ± 0.009	0.397 ± 0.008	0.37 ± 0.008	–
101 kPa, x1 = 0.2052	–	0.475 ± 0.01	0.447 ± 0.009	0.42 ± 0.009	–
101 kPa, x1 = 0.3085	–	0.55 ± 0.012	0.514 ± 0.011	0.482 ± 0.01	–
101 kPa, x1 = 0.4071	–	0.63 ± 0.013	0.591 ± 0.012	0.55 ± 0.012	–
101 kPa, x1 = 0.5078	–	0.738 ± 0.016	0.687 ± 0.014	0.64 ± 0.013	–
101 kPa, x1 = 0.6071	–	0.865 ± 0.018	0.802 ± 0.017	0.745 ± 0.016	–
101 kPa, x1 = 0.7074	–	1.03 ± 0.022	0.95 ± 0.02	0.875 ± 0.018	–
101 kPa, x1 = 0.8047	–	1.217 ± 0.025	1.12 ± 0.023	1.03 ± 0.022	–
101 kPa, x1 = 0.9038	–	1.466 ± 0.031	1.34 ± 0.028	1.23 ± 0.026	–
101.3 kPa, x1 = 0.098	0.428 ± 0.004	–	0.387 ± 0.004	–	0.351 ± 0.004
101.3 kPa, x1 = 0.1952	0.484 ± 0.005	–	0.433 ± 0.004	–	0.393 ± 0.004
101.3 kPa, x1 = 0.2948	0.55 ± 0.005	–	0.492 ± 0.005	–	0.44 ± 0.005
101.3 kPa, x1 = 0.3941	0.638 ± 0.006	–	0.564 ± 0.005	–	0.498 ± 0.005
101.3 kPa, x1 = 0.4961	0.747 ± 0.006	–	0.655 ± 0.006	–	0.571 ± 0.005
101.3 kPa, x1 = 0.5985	0.882 ± 0.007	–	0.767 ± 0.007	–	0.662 ± 0.006
101.3 kPa, x1 = 0.6974	1.047 ± 0.009	–	0.912 ± 0.008	–	0.771 ± 0.007
101.3 kPa, x1 = 0.7984	1.263 ± 0.011	–	1.082 ± 0.009	–	0.913 ± 0.008
101.3 kPa, x1 = 0.8972	1.539 ± 0.013	–	1.286 ± 0.011	–	1.08 ± 0.009

CC1CCCCC1 + CCCCCCCC
viscosity [mPa·s], 101 kPa
Conditions	293.15 K	298.15 K	303.15 K	308.15 K
x1 = 0.0401	0.5414 ± 0.0048	0.5075 ± 0.0046	0.482 ± 0.0045	–
x1 = 0.1044	–	0.524 ± 0.009	0.496 ± 0.009	0.468 ± 0.009
x1 = 0.1998	0.5583 ± 0.0052	0.5193 ± 0.0049	0.4944 ± 0.0048	–
x1 = 0.2066	–	0.535 ± 0.01	0.504 ± 0.009	0.474 ± 0.009
x1 = 0.2801	0.5689 ± 0.0054	0.5283 ± 0.0051	0.5018 ± 0.0049	–
x1 = 0.3045	–	0.543 ± 0.01	0.512 ± 0.009	0.481 ± 0.009
x1 = 0.3514	0.5781 ± 0.0057	0.5367 ± 0.0053	0.5067 ± 0.0051	–
x1 = 0.4068	–	0.557 ± 0.01	0.525 ± 0.01	0.493 ± 0.009
x1 = 0.4282	0.5879 ± 0.0059	0.5477 ± 0.0056	0.5161 ± 0.0053	–
x1 = 0.5043	–	0.57 ± 0.01	0.537 ± 0.01	0.504 ± 0.009
x1 = 0.6015	–	0.586 ± 0.01	0.552 ± 0.01	0.518 ± 0.01
x1 = 0.6051	0.6189 ± 0.0065	0.5761 ± 0.0062	0.5389 ± 0.0058	–
x1 = 0.6759	0.634 ± 0.0069	0.5912 ± 0.0065	0.5529 ± 0.0061	–
x1 = 0.7015	–	0.603 ± 0.011	0.567 ± 0.01	0.532 ± 0.01
x1 = 0.7572	0.6552 ± 0.0073	0.6123 ± 0.0068	0.5712 ± 0.0065	–
x1 = 0.8023	–	0.624 ± 0.011	0.587 ± 0.011	0.55 ± 0.01
x1 = 0.8382	0.6791 ± 0.0077	0.6323 ± 0.0072	0.5918 ± 0.0068	–
x1 = 0.8984	–	0.646 ± 0.012	0.607 ± 0.011	0.568 ± 0.01
x1 = 0.9197	0.7023 ± 0.0082	0.6539 ± 0.0077	0.6124 ± 0.0072	–
x2 = 0.0861	–	0.655 ± 0.006	–	–
x2 = 0.1756	–	0.633 ± 0.006	–	–
x2 = 0.3246	–	0.602 ± 0.005	–	–
x2 = 0.4674	–	0.577 ± 0.005	–	–
x2 = 0.6154	–	0.559 ± 0.005	–	–
x2 = 0.7785	–	0.526 ± 0.005	–	–
x2 = 0.7797	–	0.535 ± 0.005	–	–
